Data: PubChem BioAssay AID743395 (Broad Institute, 2014)

Tested on: HepG2 viability, CellTiter-Glo ATP luminescence, 72 h
Assay: HepG2 cell cytotoxicity, dose response, cytotoxicity control, CellTiter-Glo luminescence, cherry-pick, set 2 (AID 743395)

Compound	AC35
CC1OC(OC2CC(O)C3(CO)C4C(O)CC5(C)C(C6=CC(=O)OC6)CCC5(O)C4CCC3(O)C2)C(O)C(O)C1O (stereo not given)	0.201 µM
Oc1cccc(/C=N/Nc2ccc(Cl)nn2)c1O	7.7 µM
C[C@H]1CN([C@@H](C)CO)C(=O)c2cccc(NC(=O)Nc3ccc(C(F)(F)F)cc3)c2O[C@H]1CN(C)C(=O)NC1CCCCC1	11.2 µM
CC(=O)Oc1c(C)cc(Cl)cc1C(=O)Nc1ccc([N+](=O)[O-])cc1Cl	0.712 µM
COc1ccc(COc2cc(-c3cccc(OC)c3)nc3ccc(NC(=O)c4ccc(OC)cc4)cc23)cc1	7.56 µM
C[C@@H]1CN([C@@H](C)CO)C(=O)Cc2cc(NC(=O)Nc3cccc4ccccc34)ccc2O[C@@H]1CN(C)Cc1ccc(Cl)c(Cl)c1	14.5 µM
N#C[C@H]1[C@H](c2ccc(C3=CCCCC3)cc2)[C@@H](CO)N1C(=O)NC1CCCCC1	10.3 µM
CC(C)(C)c1ccc(OCC(=O)Nc2ccc3c4c(cccc24)C(=O)NC3=O)cc1	18.5 µM
C[C@H]1CN([C@@H](C)CO)S(=O)(=O)c2ccc(C#CC3CCCCC3)cc2O[C@H]1CN(C)Cc1cccnc1	22.2 µM
O=C1CC(c2ccccc2)CC2=C1C=Nc1ccccc1N2 (stereo not given)	18.3 µM
COc1ccc(-c2ccc3c(c2)[C@H]2[C@H](CCN2S(=O)(=O)c2ccc(OC)cc2)[C@H](CO)N3C)cc1	6.5 µM
COc1ccc(S(=O)(=O)Nc2ccc3c(c2)C(=O)N([C@H](C)CO)C[C@@H](C)[C@@H](CN(C)Cc2ccc(Cl)c(Cl)c2)O3)cc1	14.1 µM
CCCC(=O)NC(NC(=S)Nc1ccc(N=Nc2ccccc2)cc1)C(Cl)(Cl)Cl (stereo not given)	5.73 µM
COc1ccc(NC(=O)Nc2ccc3c(c2)C(=O)N([C@H](C)CO)C[C@@H](C)[C@H](CN(C)Cc2ccc(C(F)(F)F)cc2)OCCCC[C@H](C)O3)cc1	13.9 µM
CC12CCC(CC1O)C2C(=O)O (stereo not given)	17.9 µM
O=C(Nc1ccccc1)N1CCCCN2[C@@H](CO)[C@H](c3ccc(C#Cc4ccccc4)cc3)[C@@H]2C1	10.9 µM
CC(=NNC(=S)N(Cc1ccccn1)Cc1ccccn1)c1cnccn1	2.87 µM
COc1cccc(-c2cc3nc(-c4ccccc4)cc(=O)n3[nH]2)c1	7.55 µM
COc1cc(C(=O)N/N=C(\c2ccccc2)c2ccccn2)cc(OC)c1OC	1.46 µM
COc1cccc2c1C(=O)c1c(O)c3c(c(O)c1C2=O)CC(O)(C(C)=O)CC3OC1CC(N(C)C)C(O)C(C)O1 (stereo not given)	0.0849 µM
O=C(C[C@@H]1CC[C@@H]2[C@H](COC[C@H](O)CN2Cc2ccc(Oc3ccccc3)cc2)O1)N1CCN(c2ccccc2)CC1	7.84 µM
CCC(=O)N1CC2(CCN(Cc3ccc(Cl)cc3)CC2)c2c([nH]c3cc(OC)ccc23)[C@H]1CO	9.3 µM
O=C(N=Nc1c(O)[nH]c2ccc(Br)cc12)c1ccccc1-n1cccc1	13.1 µM
COC(=O)c1cn(NC(=O)c2cc([N+](=O)[O-])ccc2F)c(=O)c2ccccc12	0.521 µM
O=C(N/N=C/c1c(O)ccc2ccccc12)C(=O)N1CCCC1	15.7 µM
CC(=O)N1CCc2cc(S(=O)(=O)N3c4ccccc4CC3C)ccc21 (stereo not given)	10.2 µM
Cc1cccc(N2CCN(C(=O)c3ccc4[nH]c(C)c(C)c4c3)CC2)c1C	2.5 µM

Compound	AC35
COc1ccc(C2c3ccc4ccccc4c3Oc3ncn(CCCO)c(=N)c32)cc1OC (stereo not given)	18.7 µM
Clc1ccc(SCc2cc(N3CCOCC3)nc(-c3ccccn3)n2)cc1	9 µM
N#C/C(=C/c1ccc(N2CCCCC2)o1)C(=O)Nc1ccc2ccccc2c1	21.1 µM
O=C1/C(=C\c2cc(Cl)c(O)c(Cl)c2)SC(=S)N1Cc1ccccc1	15.4 µM
O=C(NCCOc1ccccc1F)c1cc([N+](=O)[O-])ccc1N1CCOCC1	13.6 µM
COc1cccc(S(=O)(=O)N2C[C@@H]3N[C@H](C2)C3c2ccc(-c3cccc(C)c3)cc2)c1 (stereo not given in full)	12 µM
C/C(=N\NC(=O)c1c(Cl)c(C)nn1C)c1ccc(NC(=O)C2CCC2)cc1	4.43 µM
COc1ccc(OC)c2[nH]c(C(=O)N/N=C/c3ccccc3O)cc12	3.77 µM
Cc1ccc2cc(CN(CC3CCCO3)C(=S)Nc3ccccc3)c(=O)[nH]c2c1C (stereo not given)	14.7 µM
O=C(CCCl)Nc1nc2c(s1)CCc1ccccc1-2	20.6 µM
Cn1cccc1/C=C1\SC(=Nc2cccc(O)c2)NC1=O	14.2 µM
COc1ccc(O)c(/C=N/NC(=O)c2ccc(N3CCCC3=O)cc2)c1	2.93 µM
C[C@@H]1CN([C@@H](C)CO)C(=O)Cc2cc(N(C)C)ccc2O[C@@H]1CN(C)Cc1ccc(C(=O)Nc2ccccc2N)cc1	11.5 µM
Cc1ccc(-c2csc3ncn(CC#N)c(=O)c23)cc1C	17.9 µM
CCN(CC)c1ccc(/C=N/NC(=O)c2cnccn2)cc1	6.68 µM
CC(=O)Nc1cccc(-c2ccnc3c2CC(C)(C(=O)Nc2ccc4c(c2)OCO4)O3)c1 (stereo not given)	17.4 µM
O=C1NC(=O)C(=Cc2c(Cl)cccc2Cl)C(=O)N1	22.2 µM
COc1ccc(C2=NOC(C(=O)NCc3ccc(F)cc3)C2)cc1OC (stereo not given)	7.73 µM
COC(=O)c1cc(C(=O)N2CCN(c3cccc(Cl)c3)CC2)cc([N+](=O)[O-])c1	14.1 µM
CC(=O)Nc1cccc(-c2ccnc3c2CC(C)(C(=O)NCc2cccs2)O3)c1 (stereo not given)	2.49 µM
C1CCC(C(CC2CCCCN2)C2CCCCC2)CC1 (stereo not given)	6.26 µM
O=C(CN1CCCC1)N/N=C/c1c(O)ccc2ccccc12	12.6 µM
Cc1c(C2Nc3ccccc3C2C)[nH]c2ccccc12 (stereo not given)	6.86 µM
O=C(C1CC1)N1CC(=O)N2[C@H](CO)[C@@H](c3ccc(-c4ccccc4F)cc3)[C@@H]2C1	18.9 µM
O=C1CN(S(=O)(=O)Cc2ccccc2)C[C@@H]2[C@@H](c3ccc(C#Cc4cccc(F)c4)cc3)[C@@H](CO)N12	7.38 µM
COc1cccc2c1C(=O)c1c(O)c3c(c(O)c1C2=O)C[C@](O)(C(C)=O)C[C@H]3O[C@@H]1C[C@@H](N)[C@@H](O)[C@@H](C)O1	0.0738 µM
COc1ccc([N+](=O)[O-])cc1Nc1c2ccccc2nc2ccccc12	18.4 µM

Compound	AC35
CC(=O)N1CCc2c(sc(NC(=O)c3ccc4c(c3)OCCO4)c2C#N)C1	19.4 µM
CCCC#Cc1ccc([C@H]2[C@@H](CO)N3CCCCN(S(=O)(=O)c4ccccc4C)C[C@H]23)cc1	8.96 µM
COc1ccc(CC(=O)NCc2ccc(-n3cccc3)cc2)cc1OC	9.29 µM
C[C@H](CO)N1C[C@H](C)[C@H](CN(C)C(=O)NC2CCCCC2)Oc2cc(C#Cc3cccc(F)c3)ccc2S1(=O)=O	10.9 µM
O=C(c1cccc(F)c1)N1CC[C@@H]2[C@H](CO)Nc3ccc(-c4ccccc4F)cc3[C@@H]21	18.1 µM
CCCCN1C(=O)CC(C(=O)OCC)=C1C	22 µM
CC(=O)Nc1ccc(S(=O)(=O)NC2=C(N3CCN(Cc4ccccc4)CC3)C(=O)c3ccccc3C2=O)cc1	17.1 µM
COc1ccc(/C(C)=N/NC(=O)c2cccc(S(=O)(=O)N3CCCC3)c2)c(O)c1	0.944 µM
COc1ccc(NC(=O)c2nc(C)c(C3(C)CC(c4cccnc4)=NO3)s2)cc1 (stereo not given)	13.9 µM
Cn1c(C(=O)c2ccccc2[N+](=O)[O-])nc2ccccc21	14.3 µM
O=C(Cc1ccccc1)N1CC(=O)N2[C@H](C1)[C@@H](c1ccc(C#Cc3ccccc3)cc1)[C@@H]2CO	20.3 µM
COC(=O)/C=C/c1ccccc1S(=O)(=O)N(Cc1ccccc1)Cc1ccco1	15.4 µM
O=C(C1CCCC1)N1CC(=O)N2[C@H](CO)[C@@H](c3ccc(-c4ccccc4F)cc3)[C@@H]2C1	16.3 µM
CO/N=C\CC(=O)Nc1ccc(Cl)cc1Cl	16.1 µM
CCOc1ccc2[nH]c(C(=O)N/N=C/c3ccc(OC)cc3)cc2c1	4.77 µM
CC1=Nc2cc(C(=O)NCC3CCCO3)ccc2Sc2ccc(Br)cc21 (stereo not given)	19.4 µM
N=C1/C(=C/c2cccn2CCOc2ccccc2)C(=O)N=C2SC=C(c3ccccc3)N12	19.3 µM
CC1(S(=O)(=O)O)CC(=O)c2ccccc2C1=O (stereo not given)	20.1 µM
COc1cccc(S(=O)(=O)N(C)C[C@@H]2Oc3cc(C4=CCCC4)ccc3S(=O)(=O)N([C@H](C)CO)C[C@H]2C)c1	20.3 µM
Cc1ccc(C)c(CSc2nc3[nH]ncc3c(=O)[nH]2)c1	5.46 µM
CCN(CC)CCCNc1ccc2ncn3c4ccc(O)cc4c(=O)c1c23	1.03 µM
CCc1nc(N)nc(N)c1-c1ccc(Cl)c([N+](=O)[O-])c1	0.276 µM
Nc1ccn(C2OC(CO)C(O)C2O)c(=O)n1 (stereo not given)	6.2 µM
Nc1c(C(=O)c2ccco2)oc2ccccc12	15.8 µM
CCc1ccc(OCCNc2cc(N3CCNC(C)C3)ccc2[N+](=O)[O-])cc1 (stereo not given)	9.58 µM
CCOC(=O)c1ccc(-c2c(-c3cc(OC)c(OC)c(OC)c3)noc2C)cc1F	5.6 µM
